From publication PMC4980028, “Discovery of a Series of Acridinones as Mechanism-Based Tubulin Assembly Inhibitors with Anticancer Activity” (PLoS ONE, 2016)
Where two headings read alike, the source gives them in different places.

Experiments:
FGH = experiment: Cytotoxicity assay (MTS); type: cell-based, human; conditions: for cell death in FGH cells: concentrations around the IC50 values in MDA-MB-231 cells; for IC50: 72 h MTS assay, normal fibroblasts
Method: (§1) Then, 20 μL of the MTS reagent (CellTiter 96® AQueous One Solution Cell Proliferation Assay, Promega) was added to the wells, and the cells were incubated for 3 to 4 h at 37°C. Next, absorbance was measured at 490 nm using a spectrophotometer (SpectraMax Plus384, Molecular Devices). The percentage of unviable cells was determined in relation to the control wells, and at least two independent experiments were carried out for each test compound.

Cytotoxicity assay (MTS) = type: cell-based, human; conditions: human, FGH cells (normal fibroblasts); 72 h MTS assay, normal fibroblasts
Method: as §1

MDA-MB-231 cells [1] = experiment: Wound healing assay; type: cell-based, human; conditions: 10 μM, 22 h
Method: To qualitatively evaluate directional cell migration, MDA-MB-231 cells were seeded at a density of 1 x 10^5 cells/well in 24-well culture plates (TPP^TM) and allowed to reach a confluent monolayer. Then, the wells were scratched using a sterile 100 μL pipette tip. The medium was removed and fresh medium without FBS was added to clean the debris. Next, the cells were incubated for 22 h at 37°C with supplemented medium (10% FBS) and different concentrations of test compounds (10 μM, 1 μM and 0.250 μM). When measuring the wound closure, the wells were photographed under a 4X objective (Optiphase) at 0 and 22 h. The images were analyzed using Image J software, and two independent experiments were conducted in triplicate.

MDA-MB-231 cells [2] = experiment: Cell-cycle analysis by flow cytometry; type: cell-based, human; conditions: 48 h, 1 or 3 μM, synchronized culture
Method: MDA-MB-231 cells were added at a density of 5 x 10^5 cells in 25 cm^2 culture bottles (TPP^TM) with 5 mL of medium supplemented with 10% FBS. After 36 h, the media was removed, and 5 mL of fresh media without FBS was added. The bottles were then incubated for 48 h for cell-cycle synchronization. Then, the cells were treated with the test compounds (1 or 3 μM) for 48 h. Subsequently, the cells were harvested by trypsinization, and their chromatin was fixed and stained following the manufacturer’s instructions (cat. no. 340242, BD Biosciences^TM). Shortly thereafter, the cells were centrifuged at 300 rcf for 5 min and resuspended in 1 mL of buffer (sodium citrate, sucrose, and DMSO) three times. From this suspension, 1 x 10^6 cells were centrifuged at 400 rcf for 5 min, resuspended in 250 μL of solution A (trypsin in a spermine tetrahydrochloride detergent buffer) and incubated for 10 min at room temperature. Next, 200 μL of solution B (trypsin inhibitor and ribonuclease A in citrate-stabilizing buffer with spermine tetrahydrochloride) was added, and the suspension was incubated for 10 min at room temperature. Finally, 200 μL of solution C (propidium iodide (PI) and spermine tetrahydrochloride in citrate stabilizing buffer) was added, and the sample was incubated for 15 min in the refrigerator. The samples were then analyzed by flow cytometry using a BD Accuri C5 (BD Biosciences^TM) system (excitation at 488 nm and emission detected with a 585/40 nm filter).

MDA-MB-231 cells [3] = experiment: Boyden chamber (transwell) migration assay; type: cell-based, human; conditions: MDA-MB-231, transwell, 6 h, read-out: IC50 Cell migration
Method: Transwells containing 0.3 cm^2 inserts with 8.0 μm pore polyethylene terephthalate membranes (Corning Falcon^TM) were used to quantify cell migration. MDA-MB-231 cells were added at a density of 4 x 10^4 cells/insert in serum-free media (300 μL) in the upper chambers. In the lower chambers, 700 μL of medium supplemented with 10% FBS was added. […] The systems were incubated at 37°C for 6 h. Next, the cells inside the insert were removed with a cotton swab and the cells under the membrane were fixed with methanol and stained with toluidine blue for 5 min. Pictures of the stained membrane were taken under a 10X objective (Optiphase), and the cells were quantified using NIS Elements software (NIKON). Two independent experiments were conducted in duplicate.

MDA-MB-231 = experiment: Cytotoxicity assay (MTS); type: cell-based, human; conditions: for IC50: 72 h MTS assay; for dead cells in MTS studies: similar concentrations as apoptosis analyses
Method: as §1, with “MDA-MB-231, DU-145 and FGH cell lines were plated at a concentration of 4 x 10^3 cells/well in 96-well culture plates (TPP^TM). After 24 h, 10 concentrations (100–0.16 μM) of the test compounds were added in triplicate to the wells, and the plates were incubated for 72 h at 37°C in a 5% CO2 humidified atmosphere (if necessary). Then,” for “Then,”

DU-145 = experiment: Cytotoxicity assay (MTS); type: cell-based, human; conditions: 72 h MTS assay
Method: as §1, with “MDA-MB-231, DU-145 and FGH cell lines were plated at a concentration of 4 x 10^3 cells/well in 96-well culture plates (TPP^TM). After 24 h, 10 concentrations (100–0.16 μM) of the test compounds were added in triplicate to the wells, and the plates were incubated for 72 h at 37°C in a 5% CO2 humidified atmosphere (if necessary). Then,” for “Then,”

MDA-MB-231 cells [4] = experiment: Apoptosis analysis (FITC-Annexin V/PI flow cytometry); type: cell-based, human; conditions: for dead cells: 72 h after treatment; for apoptotic cells: after 24 h
Method: Apoptosis was measured by flow cytometry via double staining with FITC-Annexin V and PI (cat. no. 556570, BD Pharmigen^TM). Cells were prepared in the same way as described for the cell-cycle analysis, except that the cell-synchronization step was omitted in this case. After treatment with the test compounds for 24 or 72 h, the cells were harvested by trypsinization and centrifuged for 10 min at 150 rcf. The pellet was resuspended in annexin V binding buffer at a concentration of 10^6 cells/mL. Then, 100 μL of this suspension was collected and stained with 5 μL of PI and FITC-Annexin V for 15 min at room temperature in the dark. After this, 400 μL of annexin V binding buffer was added, and the samples were analyzed using a BD Accuri C5 cytometer with excitation at 488 nm and emission detected with 533/30 nm (FITC) and 670 LP nm (PI) filters.

tubulin [5] = biological target: T1, tubulin (Sus scrofa, UniProt P02550+P02554); experiment: Light-scattering-based tubulin polymerization assay; type: biochemical; conditions: read-out: IC50 Tubulin assembly
T1 sequence (P02550 whole entry): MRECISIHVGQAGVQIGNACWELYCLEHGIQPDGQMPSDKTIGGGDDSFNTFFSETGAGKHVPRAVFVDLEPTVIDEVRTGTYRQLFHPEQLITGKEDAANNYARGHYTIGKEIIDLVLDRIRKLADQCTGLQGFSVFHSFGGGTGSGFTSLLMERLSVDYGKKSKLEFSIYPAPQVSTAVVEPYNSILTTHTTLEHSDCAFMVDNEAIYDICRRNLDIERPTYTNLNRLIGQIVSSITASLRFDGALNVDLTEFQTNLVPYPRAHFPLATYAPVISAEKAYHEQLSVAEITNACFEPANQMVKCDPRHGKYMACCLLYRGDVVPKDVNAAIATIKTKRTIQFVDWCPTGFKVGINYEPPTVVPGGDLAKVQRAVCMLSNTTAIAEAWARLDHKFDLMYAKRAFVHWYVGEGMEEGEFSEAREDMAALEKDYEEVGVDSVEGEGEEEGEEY
T1 sequence (P02554 whole entry): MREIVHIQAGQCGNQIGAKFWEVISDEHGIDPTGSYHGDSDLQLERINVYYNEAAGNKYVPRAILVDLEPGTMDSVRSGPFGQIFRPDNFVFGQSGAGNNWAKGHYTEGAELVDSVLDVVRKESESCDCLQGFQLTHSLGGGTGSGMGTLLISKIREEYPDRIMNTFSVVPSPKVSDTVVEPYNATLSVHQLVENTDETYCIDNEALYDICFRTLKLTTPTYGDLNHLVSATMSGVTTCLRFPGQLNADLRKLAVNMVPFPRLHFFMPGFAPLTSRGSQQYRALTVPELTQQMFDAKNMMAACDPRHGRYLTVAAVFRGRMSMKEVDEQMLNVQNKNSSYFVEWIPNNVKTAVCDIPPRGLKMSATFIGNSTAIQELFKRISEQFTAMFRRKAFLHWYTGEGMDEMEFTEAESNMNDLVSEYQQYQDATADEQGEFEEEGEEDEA
Method: To independently confirm the ability of the compounds to inhibit tubulin assembly, a second tubulin polymerization assay was carried out. We added 20 μL aliquots of the test compounds solubilized in 10% DMSO (in triplicate) to the wells of a 96-well culture plate (TPP^TM). Then, 180 μL of 3 mg/mL tubulin (>97% pure, HTS03, Cytoskeleton) in G-PEM buffer (80 mM PIPES, 1 mM EGTA, 2 mM GTP, 1 mM MgCl2 and glycerol 5%, pH 7,0) was added to the wells, and the absorbance at 340 nm was measured every 40 s for 1 h using a SpectraMax Plus384.

tubulin [6] = biological target: T1, tubulin; experiment: Fluorescence-based tubulin polymerization assay; type: biochemical; conditions: read-out: IC50 Tubulin assembly
Method: Tubulin polymerization assay kit B[…] (Cytoskeleton) was used according to the manufacturer's instructions. […] The curves were normalized, and the percentage of inhibition was calculated by comparing the polymerization reaction at 25 min relative to vehicle control.

IC50 (MDA-MB-231 cells [3]; Homo sapiens)	Compound	SI (selectivity index) (FGH)	cell death in FGH cells (FGH)	IC50 at 72 h (Cytotoxicity assay (MTS))	inhibition of wound closure (cell migration) (MDA-MB-231 cells [1])	cells arrested in G2 (MDA-MB-231 cells [2])	IC50 (MDA-MB-231; Homo sapiens, MDA-MB-231)	dead cells in MTS studies (MDA-MB-231)	IC50 (DU-145; Homo sapiens, DU-145)	dead cells (MDA-MB-231 cells [4])	apoptotic cells (MDA-MB-231 cells [4])	IC50 (FGH)	IC50 (MDA-MB-231 cells [3])	IC50 (MDA-MB-231)	IC50 (DU-145)	IC50 (tubulin [5])	IC50 (tubulin [6])
294 ± 5 nM	O=C1CCCC2=C1[C@@H](c1cccc([N+](=O)[O-])c1)c1ccc3ccccc3c1N2 [Compound 7]	> 100	20%	> 100000 nM	inhibit cell migration	49.1%	190 ± 7 nM	69%	308 ± 50 nM	67%	54.2%						
	O=C1CCCC2=C1C(c1cccs1)c1ccc3ccccc3c1N2 (racemic) [Compound 9]		13%		inhibit cell migration	53.6%		71%		75%	54.6%	> 100000 nM	1345 ± 7 nM	1100 ± 200 nM	1000 ± 300 nM	5000 ± 2000 nM	
	O=C1CCCC2=C1C(c1ccc3c(c1)OCO3)c1ccc3ccccc3c1N2 (stereo not drawn) [Compound 6]		3%		inhibit cell migration	53.6%		51%		55%	69.4%	> 100000 nM	1700 ± 700 nM	3000 ± 1000 nM	3200 ± 700 nM		13000 ± 2000 nM
	COc1cc2c(c(OC)c1OC)-c1ccc(OC)c(=O)cc1[C@@H](NC(C)=O)CC2 [Colchicine, colchicine, reference compound]			< 20 nM		42.9%				72%	65%			20 ± 10 nM	25 ± 3 nM		
